Columns and labels:
MERTK = target: T1, MERTK (Homo sapiens, UniProt Q12866); assay: TR-FRET kinase activity assay, MERTK; type: biochemical; details: for IC50: TR-FRET activity assay, ATP at Km, 60 minutes, read-out: Mer IC50
T1 sequence (Q12866 21-999): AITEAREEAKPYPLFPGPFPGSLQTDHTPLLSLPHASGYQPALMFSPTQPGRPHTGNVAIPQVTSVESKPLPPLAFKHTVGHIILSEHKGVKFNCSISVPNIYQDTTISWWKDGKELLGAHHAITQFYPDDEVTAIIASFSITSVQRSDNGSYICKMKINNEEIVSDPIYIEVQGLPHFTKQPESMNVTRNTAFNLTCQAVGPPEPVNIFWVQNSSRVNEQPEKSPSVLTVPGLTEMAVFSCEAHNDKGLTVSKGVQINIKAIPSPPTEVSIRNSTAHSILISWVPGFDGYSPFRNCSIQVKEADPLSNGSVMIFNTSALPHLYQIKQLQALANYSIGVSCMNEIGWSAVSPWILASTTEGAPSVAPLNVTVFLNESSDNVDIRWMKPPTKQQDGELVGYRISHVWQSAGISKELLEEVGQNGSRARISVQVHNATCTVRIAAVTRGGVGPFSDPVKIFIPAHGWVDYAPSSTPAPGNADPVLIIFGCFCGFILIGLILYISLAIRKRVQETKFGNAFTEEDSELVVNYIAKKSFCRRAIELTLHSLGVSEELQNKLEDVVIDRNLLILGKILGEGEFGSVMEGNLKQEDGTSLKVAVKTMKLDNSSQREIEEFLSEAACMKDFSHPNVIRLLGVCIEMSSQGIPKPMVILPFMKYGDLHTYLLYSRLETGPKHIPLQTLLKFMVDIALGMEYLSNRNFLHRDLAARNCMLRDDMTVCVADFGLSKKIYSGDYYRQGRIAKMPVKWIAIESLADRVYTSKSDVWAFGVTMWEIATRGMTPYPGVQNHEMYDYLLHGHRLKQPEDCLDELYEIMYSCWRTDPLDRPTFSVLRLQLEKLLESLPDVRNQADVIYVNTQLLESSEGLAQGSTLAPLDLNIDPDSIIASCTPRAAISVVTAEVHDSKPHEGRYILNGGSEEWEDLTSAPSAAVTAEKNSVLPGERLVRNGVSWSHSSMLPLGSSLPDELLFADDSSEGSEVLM
Summary of the method: (§1)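 Compounds were tested against each kinase with ATP set at its own Km and a labelled tyrosine peptide substrate. Following one hour at room temperature in buffer containing 10 mM MgCl2 and 1 mM DTT, phosphorylated product was detected by Europium antibody TR-FRET after EDTA quench, and IC50 values were calculated.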

AXL = target: T2, AXL (Homo sapiens, UniProt P30530); assay: TR-FRET kinase activity assay, AXL; type: biochemical; details: ATP at Km, 60 minutes
T2 sequence (P30530 26-894): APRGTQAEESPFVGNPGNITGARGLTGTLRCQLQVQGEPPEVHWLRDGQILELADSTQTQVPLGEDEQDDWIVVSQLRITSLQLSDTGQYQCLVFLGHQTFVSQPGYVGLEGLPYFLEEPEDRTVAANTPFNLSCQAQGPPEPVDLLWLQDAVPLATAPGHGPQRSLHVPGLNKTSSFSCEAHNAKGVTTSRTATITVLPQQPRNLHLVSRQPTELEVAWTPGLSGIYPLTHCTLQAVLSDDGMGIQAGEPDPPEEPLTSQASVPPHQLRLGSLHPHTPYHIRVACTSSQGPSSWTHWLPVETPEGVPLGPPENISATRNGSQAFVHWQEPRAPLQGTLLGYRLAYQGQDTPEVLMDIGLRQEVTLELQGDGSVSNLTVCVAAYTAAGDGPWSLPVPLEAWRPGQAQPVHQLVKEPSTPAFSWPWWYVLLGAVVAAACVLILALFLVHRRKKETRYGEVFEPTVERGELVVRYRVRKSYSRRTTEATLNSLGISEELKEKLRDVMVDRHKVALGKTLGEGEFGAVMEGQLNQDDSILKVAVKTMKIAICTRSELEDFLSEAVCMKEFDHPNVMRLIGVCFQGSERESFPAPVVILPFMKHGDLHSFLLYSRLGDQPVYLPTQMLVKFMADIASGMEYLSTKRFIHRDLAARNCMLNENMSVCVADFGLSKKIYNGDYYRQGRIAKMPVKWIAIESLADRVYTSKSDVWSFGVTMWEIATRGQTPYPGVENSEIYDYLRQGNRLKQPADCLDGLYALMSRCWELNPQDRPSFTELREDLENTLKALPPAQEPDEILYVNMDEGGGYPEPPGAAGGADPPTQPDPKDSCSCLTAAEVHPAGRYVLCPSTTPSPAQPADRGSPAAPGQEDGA
Summary of the method: as §1

[1] = ratio calculated as FLT3 IC50/Mer IC50
[2] = ratio of Mer to FLT3: FLT3 IC50/Mer IC50

Row | Compound | IC50 (MERTK) [nM] | FLT3/Mer ratio (FLT3 IC50/Mer IC50) (MERTK; [1]) | IC50 (AXL) [nM] | FLT3/Mer ratio (FLT3 IC50/Mer IC50) (MERTK; [2])
1 | COC[C@H](C)Nc1ncc2c(-c3cnn(C(C)(C)C(=O)N4CCOCC4)c3)cc(C3CCc4[nH]ncc4C3)n2n1 (stereo partly drawn) [Compound 488] | ≤ 100 | +++ (“+++” represents a ratio of >100) | ≤ 100 | –
2 | COC[C@H](C)Nc1ncc2c(-c3cnn(C[C@@H]4CCO4)c3)cc([C@H]3CC[C@H](O)CC3)n2n1 [Compound 474] | ≤ 100 | +++ (“+++” represents a ratio of >100) | ≤ 100 | –
3 | COC[C@H](C)Nc1ncc2c(-c3cnn(C[C@@H]4CCO4)c3)cc([C@H]3CC[C@H](O)CC3)n2n1 [Compound 478] | ≤ 100 | +++ (“+++” represents a ratio of >100) | ≤ 100 | –
4 | COC[C@H](C)Nc1ncc2c(-c3ccc(-c4nn[nH]n4)cc3)cc([C@H]3CC[C@H](O)CC3)n2n1 [Compound 134] | ≤ 100 | – | ≤ 100 | +++ (“+++” represents a ratio of >100)
5 | COC[C@H](C)Nc1ncc2c(-c3ccnc(N4CCOC4=O)c3)cc([C@H]3CC[C@H](O)CC3)n2n1 [Compound 438] | ≤ 100 | +++ (“+++” represents a ratio of >100) | ≤ 100 | –
6 | COC[C@H](C)Nc1ncc2c(C#N)cc([C@H]3CC[C@H](O)CC3)n2n1 [Compound 481] | ≤ 100 | +++ (“+++” represents a ratio of >100) | 1000 to 10000 | –
7 | COC[C@H](C)Nc1ncc2c(C3=CCNCC3)cc([C@H]3CC[C@H](O)CC3)n2n1 [Compound 443] | ≤ 100 | +++ (“+++” represents a ratio of >100) | ≤ 100 | –
8 | COC[C@H](C)Nc1ncc2c(C#CC(C)(C)C(=O)N3CCOCC3)cc([C@H]3CC[C@H](O)CC3)n2n1 [Compound 449] | ≤ 100 | +++ (“+++” represents a ratio of >100) | 100 to 1000 | –
9 | COC[C@H](C)Nc1ncc2c(C3=C[C@H]4CC[C@@H](C3)N4)cc([C@H]3CC[C@H](O)CC3)n2n1 [Compound 467] | ≤ 100 | +++ (“+++” represents a ratio of >100) | ≤ 100 | –
10 | CC(CC1COC1)Nc1ncc2c(-c3cnn(C4COC4)c3)cc([C@H]3CC[C@H](O)CC3)n2n1 (mixture of isomers) [Compound 447] | 1000 to 10000 | + (“+” represents a ratio of >2.0 and <10) | 1000 to 10000 | –
11 | CC[C@H](C)Nc1ncc2c(-c3ccc(CN4CCN(C)CC4)cc3)cc(C3CCC(C)(O)CC3)n2n1 (stereo in doubt) [Compound 131, (cis)-4-(2-((S)-sec-butylamino)-5-(4-((4-methylpiperazin-1-yl)methyl)phenyl)pyrrolo[2,1-f][1,2,4]triazin-7-yl)-1-methylcyclohexanol] | ≤ 100 | – | ≤ 100 | +++ (“+++” represents a ratio of >100)
12 | COC[C@H](C)Nc1ncc2c(-c3conc3C)cc([C@H]3CC[C@H](O)CC3)n2n1 [Compound 508] | ≤ 100 | +++ (“+++” represents a ratio of >100) | ≤ 100 | –
13 | COC[C@H](C)Nc1ncc2c(-c3ccnc(N4CCOC5(COC5)C4)c3)cc([C@H]3CC[C@H](O)CC3)n2n1 [Compound 480] | ≤ 100 | +++ (“+++” represents a ratio of >100) | ≤ 100 | –
14 | COC[C@H](C)Nc1ncc2c(-c3ccnc(NC4CCOCC4)c3)cc([C@H]3CC[C@H](O)CC3)n2n1 [Compound 431] | ≤ 100 | +++ (“+++” represents a ratio of >100) | ≤ 100 | –
15 | COC[C@H](C)Nc1ncc2c(C3=C[C@@H]4CC[C@H](C3)N4C(=O)N3CCOCC3)cc([C@H]3CC[C@H](O)CC3)n2n1 [Compound 463] | ≤ 100 | +++ (“+++” represents a ratio of >100) | ≤ 100 | –
16 | COC[C@H](C)Nc1ncc2c(-c3cnn(C4COC4)c3)cc(-c3ccc(OC)cc3)n2n1 [Compound 502] | ≤ 100 | ++ (“++” represents a ratio of between 10 and 100) | 100 to 1000 | –

— patent US11040981B2, “Pyrrolotriazine compounds and methods of inhibiting TAM kinases” (Syros Pharmaceuticals, Inc., priority 2017, dated 2021)
